Laboratory results: patent publication US6271384A, “Self-assembled taxo-diterpenoid nanostructures” (The Scripps Research Institute, priority 1998, dated 2001)
Counter-ions that a name gives are not always drawn.

Assays:
[1] = Kinetics of taxol release / breakdown in plasma (HPLC); format: in vitro ADME, human; settings: methylene chloride extraction, 25° C.
immunoglobulins = assay: Displacement of the MPT group by immunoglobulins
Description: (§1) However, the release of taxol from taxol-2'-MPT can also be catalyzed by serum protein and by proteins having nucleophilic groups. […] Dialysis of the protein:taxol intermediate indicates a dissociation period of hours or days. Displacement of the MPT group by serum proteins seems to be specific for such serum proteins. […] The precise nature of the bonding between the protein and taxol has not been characterized. Scheme 2 illustrates alternative pathways for MPT release.

non-serum proteins = assay: Displacement of the MPT group by non-serum proteins; settings: tested non-serum proteins
Description: as §1

tubulin = assay: Microtubule (tubulin) polymerization-depolymerization measurements; format: biochemical; settings: for suppression of calcium chloride promoted depolymerization: 10^-6 M, CaCl2 0.25 mM, 1.0 mM GTP, 37° C.
Protocol: Tubulin polymerization-depolymerization measurements are illustrate in FIG. 3. Negative controls are shown with triangles; positive taxol controls are shown with diamonds; and taxol-2'-MPT, i.e., compound 2 is shown with dots.
More particularly, measurement were performed in 96 well plates at 37° C. following the protocol of R. Merlock and W. Wrasidlo (Analytical Biochemistry 1993, in press). Calcium chloride addition is indicated by the arrow. In each case, 1.0 mM GTP was used to promote the initial polymerization of tubulin. Negative control employed tubulin (1.0 mg/mL) alone, CaCl2 (0.25 mM) added after 20 minutes. Positive taxol control employed tubulin (1.0 mg/mL) with taxol (10^-6 M) and CaCl2 (0.25 mM) added after 20 minutes. The experimental taxol-2'-MPTemployed tubulin (1.0 mg/mL) with taxol-2'-MPT (10^-6) and CaCl2 (0.25 mM) added after 20 minutes. Turbidity was measured as optical density at 340 nm using a microplate reader (Molecular Devices Thermomax).

[2] = Stability measurements of taxol-2'-MPT by HPLC (solid state and aqueous media); format: physicochemical
Protocol: Due to a difference in retention time using our standard HPLC conditions (see FIG. 1) and differing ultraviolet absorption maxima (l280 /l254 =1.6 for 2 and 0.3 for 1), the stability of 2 was easily assayed by HPLC (FIG. 1). […] In phosphate buffered saline (PBS) or ammonium acetate-phosphate buffer systems of pH 6.0 to 7.3, 2 is stable at 25° C. for over 21 days. Taxol-2'-MPT (2) is, however, unstable in 5% HCl (pH 1.1) and brine.
Under these conditions 20% of total is recovered. More particularly, Taxol-2'-MPT (2) was dissolved in the aqueous system with the aid of sonication for five minutes. Aliquots were then removed at the times shown and partitioned into methylene chloride to quench the reaction. Samples were then analyzed using a Waters Maxima HPLC instrument equipped with an autoinjector (3.9×300 mm C18 column equipped with a precolumn. The flow rate was 1.5 mL/minute. The eluent gradient A-B extended over 30 minutes. "A" was 80% 80 mM ammonium acetate, pH 6.0. "B" was 100% methanol. An ultraviolet diode array detector was employed. The ratio of compound 2 (Rf 16.2 min.) to taxol (compound 1, Rf 16.8 min.) remaining was determined from the relative areas of the peaks after normalization with previously determined calibration curves.

[3] = Protocol: The solubility and partition coefficient data for 2 and taxol were determined using an HPLC method.
Solubility was found by forming a solution in water with the aid of sonication for five minutes, centrifugation of the samples, and injection of the supernatant. The values reported were normalized using calibration curves constructed for both compounds by preparing known concentrations in the range 1×10^-6 to 1×10^-3 M in methylene chloride and subjecting to HPLC analysis under the same conditions. […] Partition coefficients were determined by dissolving the compound in the organic phase, shaking the resulting solution with water for ten minutes, and analyzing each phase by HPLC as above.

[4] = system: leukemia, ovarian, lung, and breast carcinoma cells; assay: Cytotoxicity against a cell line panel (XTT)
Protocol: More particularly, cells were plated on 96 well plates with the following controls: no cells and toxic control (1×10^-3 M SDS). The drug was added to the first set of wells and diluted via standard dilution method from the stock. Plates were incubated at 37° C., 5% CO2 in sterile air in an humidified incubator for 72 hours. An aliquot of 50 μL of a solution of 2,3-bis(methoxy-4-nitro-5-sulfophenyl)-5-[(phenylamino)carbonyl]-1H-tetrazolium hydroxide (XTT), 1 mg mL^-1, in phosphate buffered saline (PBS, 100 mM) was added to the wells. In the presence of viable cells, this colorless clear media is enzymatically altered to give a pink coloration. […] Percentage cytotoxicity was calculated using the formula: %C=1-(OD toxin)(OD growth control)^-1 (100).

[5] = system: A549 non-small cell lung adenocarcinoma xenograft; assay: Efficacy in lung tumor xenograft nude mouse model
Protocol: The tumor model was generated from an ATCC A549 non-small cell lung adenocarcinoma cell line that was maintained under the standard cell proliferation conditions (37° C., 5% carbon dioxide in sterile air). Hemocytometer counted cells suspended in Hanks medium (Gibco, Grand Island, N.Y.) were implanted S.C.

serum protein = assay: Displacement of the MPT group by serum protein and dialysis of the protein:taxol intermediate
Description: as §1

serum albumen = assay: Displacement of the MPT group by serum albumen
Description: as §1

[6] = Self-assembly: optical density at 340 nm, light scattering and TEM; format: physicochemical
Description: Transmission electron microscopy (TEM) confirmed the presence of supramolecular structures in these solutions. […] It is likely that the long term stability of these solutions is due, at least in part, to stabilization provided by this structured environment.

cervical carcinoma = assay: Cytotoxicity, cervical carcinoma (XTT); settings: 72 hours
Protocol: (§2) More particularly, cells were plated on 96 well plates with the following controls: no cells and toxic control (1×10^-3 M SDS). The drug was added to the first set of wells and diluted via standard dilution method from the stock. Plates were incubated at 37° C., 5% CO2 in sterile air in an humidified incubator for 72 hours. An aliquot of 50 μL of a solution of 2,3-bis(methoxy-4-nitro-5-sulfophenyl)-5-[(phenylamino)carbonyl]-1H-tetrazolium hydroxide (XTT), 1 mg mL^-1, in phosphate buffered saline (PBS, 100 mM) was added to the wells. In the presence of viable cells, this colorless clear media is enzymatically altered to give a pink coloration. The plates were read at 450 nm using a plate reader. Percentage cytotoxicity was calculated using the formula: %C=1-(OD toxin)(OD growth control)^-1 (100).

human leukemia = assay: Cytotoxicity, human leukemia (XTT); settings: 72 hours
Protocol: as §2

metastatic melanoma = assay: Cytotoxicity, metastatic melanoma (XTT); settings: 72 hours
Protocol: as §2

Compound: CC(=O)O[C@H]1C(=O)[C@@]2(C)[C@H]([C@H](OC(=O)c3ccccc3)[C@]3(O)C[C@H](OC(=O)[C@H](Oc4cccc[n+]4C)[C@@H](NC(=O)c4ccccc4)c4ccccc4)C(C)=C1C3(C)C)[C@]1(OC(C)=O)CO[C@@H]1C[C@@H]2O [Compound 2, Taxol-2'-MPT (methylpyridinium tosylate)]
- time to complete conversion of 2 into taxol in plasma [1]: ≤ 10 min
- displacement of MPT group by immunoglobulins (immunoglobulins): particularly effective
- displacement of MPT group by non-serum proteins (non-serum proteins): seemed to lack this activity
- suppression of calcium chloride promoted depolymerization (tubulin): not by taxol-2'-MPT
- conversion to taxol in assay buffer (tubulin; buffered aqueous environment of this assay): not converted to taxol
- microtubule polymerization-depolymerization profile (tubulin; compared with GTP-saline controls and taxol): very similar to GTP-saline controls and drastically different from taxol
- binding to tubulin (tubulin; inferred from polymerization assay): does not appear to bind to tubulin in the manner of taxol
- stability in 5% HCl ([2]; 5% HCl (pH 1.1)): unstable
- stability in brine ([2]; brine): unstable
- stability in most aqueous media ([2]; most aqueous media): remarkably stable compound in most aqueous media
- stability in phosphate buffered saline or ammonium acetate-phosphate buffer ([2]; pH 6.0 to 7.3, 25° C.): over 21 days
- stability in aqueous media at physiological pH and ion strength ([2]; physiological pH and ion strength): essentially completely stable
- taxol release in aqueous solutions ([2]; sterile water, pH 6.2 phosphate buffered saline or 5% dextrose, 25° C., 11 minutes): no taxol release is observed over a period of 11 minutes
- degradation during solubility and partition studies [3]: No degradation
- solubility in aqueous systems relative to clinically relevant dosages [3]: higher than the clinically relevant dosages (3 to 30 mM)
- water solubility relative to taxol [3]: significantly more soluble in water than the parent taxol
- cytotoxicity (discussion statement) [4]: lack of cytotoxicity
- differential cytotoxicity profile ([4]; 2 compared with taxol): similar, although some differences were noted
- control of tumor growth ([5]; I.P. day 1,3, and 7, 2 23.9 mg/kg, taxol 18.0 mg/kg, preliminary data): at least comparable to that of taxol
- conversion to taxol in vivo ([5]; inferred from xenograft results): converted rapidly to taxol in vivo
- displacement of MPT group / formation of protein:taxol intermediate (serum protein; contacted with serum protein): observed to displace its MPT group and form a protein:taxol intermediate
- dissociation period of protein:taxol intermediate (serum protein; dialysis): hours or days
- displacement of MPT group by serum albumen (serum albumen): particularly effective
- critical concentration (exponential increase in optical density; critical aggregation concentration) ([6]; OD at 340 nm): 400 µM
- diameter of helical fibrillar structures ([6]; TEM): ca. 80 Å
- helical twist ([6]; TEM): about 7
- length of helical fibrillar structures ([6]; TEM): up to 800 Å
- concentration above which buffered solutions exhibit haze and diffuse scattering ([6]; buffered solutions): greater than 1×10^-3 M
- appearance of water solutions ([6]; water, all concentrations examined): optically clear at all concentrations examined

Compound: CC(=O)O[C@H]1C(=O)[C@@]2(C)[C@H]([C@H](OC(=O)c3ccccc3)[C@]3(O)C[C@H](OC(=O)[C@H](O)[C@@H](NC(=O)c4ccccc4)c4ccccc4)C(C)=C1C3(C)C)[C@]1(OC(C)=O)CO[C@@H]1C[C@@H]2O [Taxol, taxol]
- cytotoxicity level, cervical carcinoma (cervical carcinoma): Extremely high cytotoxicity levels
- suppression of calcium chloride promoted depolymerization (tubulin): suppressed by taxol
- cytotoxicity level, human leukemia (human leukemia): Extremely high cytotoxicity levels
- cytotoxicity level, metastatic melanoma (metastatic melanoma): Extremely high cytotoxicity levels
